{"source": "patent US10370436B2", "about": "“Anti-pseudomonas Psl binding molecules and uses thereof” (priority 2011, dated 2019)", "key": {"[1]": {"tested_on": "P. aeruginosa strains PAO1, 33356, 6294, 6077", "assay": "P. aeruginosa acute pneumonia model, survival", "type": "in vivo, BALB/c mice", "method": "FIG. 6 (A-G): Survival rates for animals treated with anti-Psl monoclonal antibodies Cam-003 or WapR-004 in a P. aeruginosa acute pneumonia model. (A-D) Animals were treated with Cam-003 at 45, 15, and 5 mg/kg and R347 at 45 mg/kg or PBS 24 hours prior to intranasal infection with (A) PAO1 (1.6×10^7 CFU), (B) 33356 (3×10^7 CFU), (C) 6294 (7×10^6 CFU), (D) 6077 (1×10^6 CFU). (E-F) Animals were treated with WapR-004 at 5 and 1 mg/kg as indicated followed by infection with 6077 at (E) (8×10^5 CFU), or (F) (6×10^5 CFU). Animals were carefully monitored for survival up to 72 hours (A-D) or for 120 hours (E-F). (G) Animals were treated with Cam-003 at 15 mg/kg or 5 mg/kg, or R347 at 15 mg/kg 24 hours prior to intranasal infection with PAO1 (4.4×10^7 CFU), and Cam-003 at 15 mg/kg 24 hours prior to intranasal infection with PAO1ΔpslA (3×10^7 CFU). In all experiments, PBS and R347 served as negative controls. Results are represented as Kaplan-Meier survival curves; differences in survival were calculated by the Log-rank test for Cam-003 vs. R347. (A) Cam-003 (45 mg/kg—P<0.0001; 15 mg/kg—P=0.0003; 5 mg/kg—P=0.0033). (B) Cam-003 (45 mg/kg—P=0.0012; 15 mg/kg—P=0.0012; 5 mg/kg—P=0.0373). (C) Cam-003 (45 mg/kg—P=0.0007; 15 mg/kg—P=0.0019; 5 mg/kg—P=0.0212). (D) Cam-003 (45 mg/kg—P<0.0001; 15 mg/kg—P<0.0001; 5 mg/kg—P=0.0001). Results are representative of at least two independent experiments. (E) [Cam-003 (5 mg/kg) vs. R347 (5 mg/kg): P=0.02; Cam-003 (1 mg/kg) vs. R347 (5 mg/kg): P=0.4848; WapR-004 (5 mg/kg) vs. R347 (5 mg/kg): P<0.0001; WapR-004 (1 mg/kg) vs. R347 (5 mg/kg): P=0.0886; WapR-004 (5 mg/kg) vs. Cam-003 (5 mg/kg): P=0.0017; WapR-004 (1 mg/kg) vs. Cam-003 (1 mg/kg): P=0.2468; R347 (5 mg/kg) vs. PBS: P=0.6676] (F) [Cam-003 (5 mg/kg) vs. R347 (5 mg/kg): P=0.0004; Cam-003 (1 mg/kg) vs. R347 (5 mg/kg): P<0.0001; WapR-004 (5 mg/kg) vs. R347 (5 mg/kg): P<0.0001; WapR-004 (1 mg/kg) vs. R347 (5 mg/kg): P<0.0001; WapR-004 (5 mg/kg) vs. Cam-003 (5 mg/kg): P=0.0002; WapR-004 (1 mg/kg) vs. Cam-003 (1 mg/kg): P=0.2628; R347 (5 mg/kg) vs. PBS: P=0.6676. (G) Cam-003 (15 mg/kg—P=0.0028; 5 mg/kg—P=0.0028)]. Results are representative of five independent experiments.\nAntibodies or PBS were administered 24 hours before infection in each model. P. aeruginosa acute pneumonia, keratitis, and thermal injury infection models were performed as described (DiGiandomenico, A., et al., Proc Natl Acad Sci USA 104, 4624-4629 (2007)), with modifications. In the acute pneumonia model, BALB/c mice (The Jackson Laboratory) were infected with P. aeruginosa strains suspended in a 0.05 ml inoculum. In the thermal injury model, CF-1 mice (Charles River) received a 10% total body surface area burn with a metal brand heated to 92° C. for 10 seconds. Animals were infected subcutaneously with P. aeruginosa strain 6077 at the indicated dose. For organ burden experiments, acute pneumonia was induced in mice followed by harvesting of lungs, spleens, and kidneys 24 hours post-infection for determination of CFU."}, "[2]": {"tested_on": "P. aeruginosa strain 6077", "assay": "P. aeruginosa thermal injury model", "type": "in vivo, CF-1 mice", "conditions": "15 and 5 mg/kg; versus antibody-treated control; FIG. 8E", "method": "FIG. 8 (A-G): Anti-Psl monoclonal antibodies Cam-003 and WapR-004 are active in a P. aeruginosa keratitis model and thermal injury model. Mice were treated with a control IgG1 antibody or Cam-003 at 45 mg/kg (A, B) or 15 mg/kg (C, D) or PBS or a control IgG1 antibody or Cam-003 at 45 mg/kg or WapR-004 at 45 mg/kg or 15 mg/kg or 5 mg/kg (F, G) 24 hours prior to infection with 6077 (O11-cytotoxic—2×10^6 CFU). Immediately before infection, three 1 mm scratches were made on the left cornea of each animal followed by topical application of P. aeruginosa in a 5 μl inoculum. 24 hours after infection, the corneal pathology scores were calculated followed by removal of the eye for determination of viable CFU. Differences in pathology scores and viable CFU were determined by the Mann-Whitney U-test. (A) P=0.0001, (B) P<0.0001, (C) P=0.0003, (D) P=0.0015. (F) and (G) Cam-003 (45 mg/kg) vs. WapR-004 (45 mg/kg): P=0.018; Cam-003 (45 mg/kg) vs. WapR-004 (15 mg/kg): P=0.0025; WapR-004 (45 mg/kg) vs. WapR-004 (15 mg/kg): P=0.1331; WapR-004 (5 mg/kg) vs. Ctrl: P<0.0001. Results are representative of five independent experiments. (E) Survival analysis from Cam-003 and R347 treated CF-1 mice in a P. aeruginosa thermal injury model after 6077 infection (2×10^5 CFU) (log-rank: R347 vs. Cam-003 15 mg/kg, P=0.0094; R347 vs. Cam-003 5 mg/kg, P=0.0017). […]"}}}
{"substance": "Cam-003: human IgG1 anti-Psl monoclonal antibody, VH SEQ ID NO: 1 and VL SEQ ID NO: 2", "values": [{"measurement": "survival", "setting": "[1]; Psl mutant strain PAO1ΔpslA, FIG. 6G", "value": "Increased survival was not observed"}, {"measurement": "activity versus Cam-003-TM", "setting": "[1]; larger infectious inoculum of 6077 (1.07×10^6), titrated antibody dose, FIG. 9E", "value": "superior to Cam-003-TM"}, {"measurement": "survival", "setting": "[1]; strain 6077, 5 mg/kg, FIG. 6D", "value": 90, "unit": "%"}, {"measurement": "survival", "setting": "[1]; strain 33356, 5 mg/kg, FIG. 6B", "value": 80, "unit": "%"}, {"measurement": "survival", "setting": "[1]; strain PAO1, at 120 hours, FIG. 6G", "value": 100, "unit": "%"}, {"measurement": "protection from challenge", "setting": "[1]; strains 33356 and 6077, 45 and 15 mg/kg, FIGS. 6B, 6D", "value": "complete protection"}, {"measurement": "survival", "setting": "[1]; strains PAO1 and 6294, 45, 15, 5 mg/kg 24 hours prior to intranasal infection, FIGS. 6A, 6C", "value": "significant concentration-dependent survival"}, {"measurement": "protection (survival)", "setting": "[2]", "value": "significant protection"}]}
